Measured values from patent US20240199597A1, “SMALL MOLECULES FOR THE TREATMENT OF KINASE-RELATED DISEASES” (Athos Therapeutics, Inc., priority 2021, published 2024).

Tests used:
PLK4 = target: T1, PLK4 (Homo sapiens, UniProt O00444); test: Kinase inhibition assay (Eurofins DiscoverX KinaseProfiler / KdElect), PLK4; type: biochemical
T1 construct: purchased Eurofins DiscoverX (contract service)
T1 sequence (O00444 1-970): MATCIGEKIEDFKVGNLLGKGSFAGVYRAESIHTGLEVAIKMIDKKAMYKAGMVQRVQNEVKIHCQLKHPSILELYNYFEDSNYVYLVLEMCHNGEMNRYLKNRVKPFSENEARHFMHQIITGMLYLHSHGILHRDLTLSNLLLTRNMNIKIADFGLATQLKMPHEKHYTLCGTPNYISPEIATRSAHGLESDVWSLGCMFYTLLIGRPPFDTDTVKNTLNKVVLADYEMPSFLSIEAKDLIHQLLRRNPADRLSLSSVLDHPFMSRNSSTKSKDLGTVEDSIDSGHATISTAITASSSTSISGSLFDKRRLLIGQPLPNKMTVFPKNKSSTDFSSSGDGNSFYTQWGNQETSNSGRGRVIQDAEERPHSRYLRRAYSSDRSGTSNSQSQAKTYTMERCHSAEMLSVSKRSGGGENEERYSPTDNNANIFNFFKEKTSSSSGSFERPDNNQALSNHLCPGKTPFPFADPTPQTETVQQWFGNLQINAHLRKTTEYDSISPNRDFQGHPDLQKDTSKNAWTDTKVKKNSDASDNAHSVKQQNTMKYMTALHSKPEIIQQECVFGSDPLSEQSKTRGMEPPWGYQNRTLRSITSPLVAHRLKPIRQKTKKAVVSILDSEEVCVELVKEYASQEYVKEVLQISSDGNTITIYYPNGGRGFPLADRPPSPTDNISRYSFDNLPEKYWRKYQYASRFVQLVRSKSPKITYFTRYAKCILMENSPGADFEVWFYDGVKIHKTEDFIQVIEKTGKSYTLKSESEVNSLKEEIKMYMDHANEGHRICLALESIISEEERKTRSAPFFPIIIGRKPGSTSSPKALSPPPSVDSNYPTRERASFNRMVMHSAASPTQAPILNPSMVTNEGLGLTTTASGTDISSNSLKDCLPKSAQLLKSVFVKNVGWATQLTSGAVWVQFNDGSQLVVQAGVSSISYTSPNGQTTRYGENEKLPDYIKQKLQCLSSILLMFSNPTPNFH
Description: (§1) The activity of Compounds 1, 3, 4, 6, 7, 8, 9, 10 and 13 in inhibiting CLK1, CLK4, PLK4, and FLT3 kinases was determined. Stock solutions of the compounds being evaluated were prepared. The IC50 values were determined by the Eurofins DiscoverX services using either the KinaseProfiler or the KdElect kinase activity detection assays.

Kasumi-3 = test: Cancer cytotoxicity assay (Real-Time-Glo cell viability), Kasumi-3; type: cell-based; details: leukemia cell, 72 hr
Description: (§2) The cytotoxicity of Compounds 1, 3, 4, 6, 7, 8, 9, 10, 12 and 13 against cancer cell lines was determined. To determine the optimal plating density for cell viability assays, for each cell line, cells were counted and diluted to final densities of 2.5, 5, 10 and 20 thousand per 100 μL of their respective growth media per well in 96 well plates. The Promega Real-Time-Glo cell viability kit was used to determine the optimal concentration for cell plating so that each cell line would be within the linear part of its growth curve after 72 hrs in culture. For the determination of test compound IC50s, different cancer cell lines were plated in 96 well plates in the pre-determined optimal density for each cell line. Test compounds were then added at different concentrations for the creation of six-point curve and cell density was determined using the Promega Real-Time-Glo cell viability kit after 24, 48, and 72 hrs in culture.

FLT3 = target: T2, FLT3 (Homo sapiens, UniProt P36888); test: Kinase assay (Eurofins DiscoverX KinaseProfiler / KdElect), FLT3; type: binding; details: read-out: FLT3 (Kd50 nM)
T2 construct: purchased Eurofins DiscoverX (contract service)
T2 sequence (P36888 27-993): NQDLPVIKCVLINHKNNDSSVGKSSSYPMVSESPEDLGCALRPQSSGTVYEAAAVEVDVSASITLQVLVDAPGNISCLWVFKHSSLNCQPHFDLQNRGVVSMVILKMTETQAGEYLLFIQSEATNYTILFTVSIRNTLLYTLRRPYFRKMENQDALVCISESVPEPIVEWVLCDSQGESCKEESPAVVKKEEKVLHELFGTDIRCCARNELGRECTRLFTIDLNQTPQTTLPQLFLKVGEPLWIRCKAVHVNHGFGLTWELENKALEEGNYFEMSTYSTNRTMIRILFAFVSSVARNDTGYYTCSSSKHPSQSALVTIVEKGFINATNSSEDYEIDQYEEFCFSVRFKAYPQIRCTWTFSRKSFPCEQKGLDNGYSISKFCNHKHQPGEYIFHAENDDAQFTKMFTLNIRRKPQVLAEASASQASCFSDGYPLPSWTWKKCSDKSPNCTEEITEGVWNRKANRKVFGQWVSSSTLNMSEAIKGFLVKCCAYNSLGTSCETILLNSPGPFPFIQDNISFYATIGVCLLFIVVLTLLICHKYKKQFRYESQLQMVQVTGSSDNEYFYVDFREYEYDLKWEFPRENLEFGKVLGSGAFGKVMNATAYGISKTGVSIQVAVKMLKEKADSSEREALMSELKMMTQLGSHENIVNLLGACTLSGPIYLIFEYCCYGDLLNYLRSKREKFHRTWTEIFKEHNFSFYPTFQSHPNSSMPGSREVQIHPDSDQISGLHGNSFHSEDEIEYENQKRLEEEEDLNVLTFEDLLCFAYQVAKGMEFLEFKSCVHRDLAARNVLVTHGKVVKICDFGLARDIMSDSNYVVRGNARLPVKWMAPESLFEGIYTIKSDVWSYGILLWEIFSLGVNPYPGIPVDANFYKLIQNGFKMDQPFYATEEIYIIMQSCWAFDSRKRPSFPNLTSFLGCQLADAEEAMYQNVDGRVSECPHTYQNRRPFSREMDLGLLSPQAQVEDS
Description: Stock solutions of the compounds being evaluated were prepared. The IC50 values were determined by the Eurofins DiscoverX services using either the KinaseProfiler or the KdElect kinase activity detection assays.

HCT-116 = test: Cancer cytotoxicity assay (Real-Time-Glo cell viability), HCT-116; type: cell-based; details: Homo sapiens, colorectal cancer cell line, 72 hr
Description: as §2

MV4-11 = test: Cancer cytotoxicity assay (Real-Time-Glo cell viability), MV4-11; type: cell-based; details: Homo sapiens, leukemia cell, 72 hr
Description: as §2

HT-29 = test: Cancer cytotoxicity assay (Real-Time-Glo cell viability), HT-29; type: cell-based; details: Homo sapiens, colorectal cancer cell line, 72 hr
Description: as §2

OV-90 = test: Cancer cytotoxicity assay (Real-Time-Glo cell viability), OV-90; type: cell-based; details: Homo sapiens, ovarian cancer cell line, 72 hr
Description: as §2

A-498 = test: Cancer cytotoxicity assay (Real-Time-Glo cell viability), A-498; type: cell-based; details: Homo sapiens, A498; kidney cancer, 72 hr
Description: as §2

Kasumi-1 = test: Cancer cytotoxicity assay (Real-Time-Glo cell viability), Kasumi-1; type: cell-based; details: Homo sapiens, leukemia cell, 72 hr
Description: as §2

CLK1 = target: T3, CLK1 (Homo sapiens, UniProt P49759); test: Kinase inhibition assay (Eurofins DiscoverX KinaseProfiler / KdElect), CLK1; type: biochemical
T3 construct: purchased Eurofins DiscoverX (contract service)
Description: as §1

SKOV-3 = test: Cancer cytotoxicity assay (Real-Time-Glo cell viability), SKOV-3; type: cell-based; details: Homo sapiens, SK-OV-3; ovarian cancer cell line, 72 hr
Description: as §2

CLK4 = target: T4, CLK4 (Homo sapiens, UniProt Q9HAZ1); test: Kinase inhibition assay (Eurofins DiscoverX KinaseProfiler / KdElect), CLK4; type: biochemical
T4 construct: purchased Eurofins DiscoverX (contract service)
Description: as §1

786-O = test: Cancer cytotoxicity assay (Real-Time-Glo cell viability), 786-O; type: cell-based; details: Homo sapiens, 786-0; kidney cancer, 72 hr
Description: as §2

T3 sequence (P49759 whole entry): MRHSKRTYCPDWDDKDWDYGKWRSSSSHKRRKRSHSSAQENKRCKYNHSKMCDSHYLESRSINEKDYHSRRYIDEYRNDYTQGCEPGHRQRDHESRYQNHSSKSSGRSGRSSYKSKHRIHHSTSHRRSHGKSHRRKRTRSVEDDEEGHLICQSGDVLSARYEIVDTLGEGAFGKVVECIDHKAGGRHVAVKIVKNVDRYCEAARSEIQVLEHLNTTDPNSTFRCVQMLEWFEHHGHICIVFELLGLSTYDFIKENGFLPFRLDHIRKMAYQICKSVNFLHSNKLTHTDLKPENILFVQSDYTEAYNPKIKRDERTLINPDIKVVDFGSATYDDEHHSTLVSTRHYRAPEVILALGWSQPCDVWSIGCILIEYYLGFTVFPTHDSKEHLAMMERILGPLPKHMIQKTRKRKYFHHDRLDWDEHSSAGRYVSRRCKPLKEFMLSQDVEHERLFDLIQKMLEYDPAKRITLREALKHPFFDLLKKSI
T4 sequence (Q9HAZ1 whole entry): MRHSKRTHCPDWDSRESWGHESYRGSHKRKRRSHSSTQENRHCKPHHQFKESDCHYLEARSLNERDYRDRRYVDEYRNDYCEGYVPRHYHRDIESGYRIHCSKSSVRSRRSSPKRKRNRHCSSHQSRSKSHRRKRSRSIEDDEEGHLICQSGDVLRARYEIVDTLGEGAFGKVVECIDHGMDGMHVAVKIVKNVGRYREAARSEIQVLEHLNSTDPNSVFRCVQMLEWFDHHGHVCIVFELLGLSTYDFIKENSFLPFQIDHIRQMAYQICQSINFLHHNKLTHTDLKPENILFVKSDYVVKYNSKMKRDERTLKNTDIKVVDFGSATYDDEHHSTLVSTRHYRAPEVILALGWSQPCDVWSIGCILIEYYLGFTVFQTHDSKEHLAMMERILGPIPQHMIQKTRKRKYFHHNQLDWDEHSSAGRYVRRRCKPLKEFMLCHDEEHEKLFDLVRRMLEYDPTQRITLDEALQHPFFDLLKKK

IC50 (PLK4) [nM]	Kd (FLT3) [µM]	IC50 (CLK1) [nM]	IC50 (CLK4) [nM]	kinase selectivity (CLK1; among CLK1, CLK4, PLK4, FLT3)	SMILES	IC50 (Kasumi-3) [nM]	IC50 (HCT-116) [nM]	IC50 (MV4-11) [nM]	IC50 (HT-29) [nM]	IC50 (OV-90) [nM]	IC50 (A-498) [nM]	IC50 (Kasumi-1) [nM]	IC50 (SKOV-3) [nM]	IC50 (786-O) [nM]
< 1000	1 to 5	< 1000	< 1000	–	COc1cc2c(Nc3cc(C)[nH]n3)nc(N3CCC(F)(F)CC3)nc2cc1OCCCN1CCCC1 [Compound 3, 2-(4,4-difluoropiperidin-1-yl)-6-methoxy-N-(5-methyl-1H-pyrazol-3-yl)-7-(3-(pyrrolidin-1-yl)propoxy)quinazolin-4-amine]	5000 to 10000	1000 to 5000	1000 to 5000	5000 to 10000	1000 to 5000	5000 to 10000	> 10000	1000 to 5000	5000 to 10000
> 10000	> 10	< 1000	5000 to 10000	selective CLK1/4 inhibitor	COc1cc2c(Nc3cc(C)[nH]n3)nc(N3CCCC3)nc2cc1OCCCN1CCCC1 [Compound 1, 6-Methoxy-N-(5-methyl-1H-pyrazol-3-yl)-2-(pyrrolidin-1-yl)-7-(3-(pyrrolidin-1-yl)propoxy)quinazolin-4-amine]	5000 to 10000	1000 to 5000	< 1000	5000 to 10000	1000 to 5000	1000 to 5000	1000 to 5000	1000 to 5000	5000 to 10000
> 10000	> 10	< 1000	< 1000	–	COc1cc2c(Nc3ncc(C)s3)nc(N3CCC(F)(F)CC3)nc2cc1OCCCN1CCCC1 [Compound 9, N-(2-(4,4-difluoropiperidin-1-yl)-6-methoxy-7-(3-(pyrrolidin-1-yl)propoxy)quinazolin-4-yl)-5-methylthiazol-2-amine]	1000 to 5000	5000 to 10000	1000 to 5000	> 10000	5000 to 10000	1000 to 5000	1000 to 5000	1000 to 5000	1000 to 5000
> 10000	1 to 5	< 1000	< 1000	–	COc1cc2c(Nc3cc(C(C)C)[nH]n3)nc(N3CCC(F)(F)CC3)nc2cc1OCCCN1CCCC1 [Compound 13, 2-(4,4-difluoropiperidin-1-yl)-N-(5-isopropyl-1H-pyrazol-3-yl)-6-methoxy-7-(3-(pyrrolidin-1-yl)propoxy)quinazolin-4-amine]	1000 to 5000	1000 to 5000	< 1000	1000 to 5000	1000 to 5000	1000 to 5000	1000 to 5000	1000 to 5000	1000 to 5000
